The supplement of paper PMC11451515

What was measured:
Experiment in all cases: AUC of viability dose-response curve (% viability x log10 dose units); higher = less sensitive
Conditions in all cases: 48 h
NOMO1 = tested on: NOMO1
Summary of the method: (§1)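 Viability of medium-adapted leukemia cells was measured by CellTiter-Glo One luminescence after 48 h at 37°C with library compounds in DMSO. Doses were 11 threefold steps from 47 μM to 0.79 nM, in 1536-well plates at 500 or 1000 cells/well. Signals were normalised per plate to DMSO and cell-free wells and fitted with a four-parameter log-logistic model on log10 dose. Area under the curve was integrated by trapezoidal rule, with curves exceeding full viability scaled and failed quality-control curves removed.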

P12-Ichikawa = tested on: P12-Ichikawa
Summary of the method: as §1

SEM cells = tested on: SEM cells
Summary of the method: as §1

[1] = RPMI 5 mM glucose + 10% dialyzed FBS

SMILES	AUC of viability dose-response curve (NOMO1; HPLM + 10% dialyzed FBS)	AUC of viability dose-response curve (NOMO1; RPMI 5 mM glucose + 10% FBS)	AUC of viability dose-response curve (NOMO1; [1])	AUC of viability dose-response curve (P12-Ichikawa; HPLM + 10% dialyzed FBS)	AUC of viability dose-response curve (P12-Ichikawa; RPMI 5 mM glucose + 10% FBS)	AUC of viability dose-response curve (P12-Ichikawa; [1])	AUC of viability dose-response curve (SEM cells; HPLM + 10% dialyzed FBS)	AUC of viability dose-response curve (SEM cells; RPMI 5 mM glucose + 10% FBS)	AUC of viability dose-response curve (SEM cells; [1])
C[C@@H](NCc1cc2ccccc2[nH]1)c1cccc2ccccc12	443	428	449	441	434	414	409	406	413
O=P1(N(CCCl)CCCl)NCCCO1 (stereo unspecified)	416	436	430	409	424	448	413	405	406
Oc1cc2c(cc1O)C1c3ccc(O)c(O)c3OCC1(O)C2 (stereo unspecified)	456	464	459	461	449	469	430	441	447
CN(c1nccc(=O)[nH]1)C1CCN(c2nc3ccccc3n2Cc2ccc(F)cc2)CC1	466	459	471	466	460	462	474	424	473
N#CC1(c2ccc(NC(=O)c3cccnc3NCc3ccncc3)cc2)CCCC1	442	475	463	437	461	435	442	431	412
CC(C)C(=O)Nc1ncc(-c2cc(C(F)F)nn2-c2c(Cl)cccc2Cl)s1	468	472	460	465	460	463	458	465	463
CC1(C)Cc2c(sc(NC(=S)NC(=O)c3ccccc3)c2C(=O)O)CO1	466	456	458	469	476	470	452	474	427
CCc1cccc2c3c([nH]c12)C(CC)(CC(=O)O)OCC3 (stereo unspecified)	452	441	427	466	448	465	454	409	448
CC(Cc1ccc(O)c(O)c1)(NN)C(=O)O (stereo unspecified)	475	453	442	448	467	465	469	466	468
O=C(O)CCNc1cc(N2CCc3ccccc3CC2)nc(-c2ccccn2)n1	448	456	452	463	454	459	463	434	463
CCC(=O)OC1CCC2C3CCC/4=C/C(=O)CC[C@@]4(C)C3CC[C@]12C (stereo partly specified)	457	456	458	471	473	466	450	460	448
CN[C@H]1[C@H](O[C@@H]2[C@H](O[C@@H]3[C@@H](O)[C@@H](O)[C@@H](NC(=N)N)[C@@H](O)[C@H]3NC(=N)N)O[C@H](C)[C@@]2(O)C=O)O[C@@H](CO)[C@@H](O)[C@H]1O	412	456	449	452	450	424	386	432	455
OCCNC1CCCc2c1[nH]c1ccc(-c3ccccc3)cc21 (stereo unspecified)	448	454	453	444	441	446	409	413	416
CCCCOc1ccc(CC(=O)NO)cc1	417	459	439	464	457	454	440	463	458
CN1C2=CC(=O)/C(=N/NC(N)=O)C=C2CC1S(=O)(=O)[O-].[Na+] (stereo unspecified)	454	462	461	475	472	459	455	449	447
C=CC(=O)Nc1cccc(Oc2nc(Nc3ccc(N4CCN(C)CC4)cc3OC)ncc2Cl)c1	325	355	362	374	351	365			
CC[C@H](NC(C)C)[C@H](O)c1ccc(O)c2[nH]c(=O)ccc12	470	447	463	451	462	456	442	472	474
O=C(C[C@@H]1C/C=C\CCC(=O)O[C@H](c2ccccc2)CNC1=O)NCc1ccc(Cl)cc1	473	471	465	452	447	457	437	415	436
Cn1c(=O)c2[nH]cnc2n(C)c1=O	464	454	457	473	463	468	474	454	477
OC1=CC2=C(C(=O)\C=C(/O2)C3=CC=CC=C3)C(=C1O)O	441	431	441	391	413	418	407	379	402
COc1ccc2c(OCc3nnc4ccc(-c5ccccc5)nn34)ccnc2c1	443	471	466	459	477	428			
CCCOc1ccc2[nH]c(NC(=O)OC)nc2c1	286	259	273	226	217	257	240	169	199
Nc1nc(Nc2ccc([S+](N)(=O)[O-])cc2)nn1C(=O)c1c(F)cccc1F	437	410	402	455	435	439	397	407	399
